Experiments:
ALOMY [1] = test: Pre-emergence action against ALOMY; format: in vivo, Alopecurus myosuroides; settings: dosage 320 g/ha; pre-emergence; scored visually after 3 weeks vs untreated controls; 100% = plants have died, 0% = like control plants
Procedure, shortened: (§1)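 Seeds sown in sandy loam in wood-fiber pots and covered with soil. Greenhouse growth; visual damage scored after 3 weeks versus untreated controls (100% = dead, 0% = like control).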

AVEFA [2] = test: Pre-emergence action against AVEFA; format: in vivo, Avena fatua; settings: dosage 320 g/ha, scored visually after 3 weeks vs untreated controls
Procedure, shortened: as §1

ECHCG [3] = test: Pre-emergence action against ECHCG; format: in vivo, Echinochloa crus-galli; settings: pre-emergence, dosage 320 g/ha, scored visually after 3 weeks vs untreated controls
Procedure, shortened: as §1

LOLRI = test: Pre-emergence action against LOLRI; format: in vivo, Lolium rigidum; settings: dosage 320 g/ha, scored visually after 3 weeks vs untreated controls
Excerpt: (§2) Seeds of monocotyledonous and dicotyledonous weed plants and crop plants are laid out in sandy loam soil in wood-fiber pots and covered with soil. The compounds of the invention, formulated in the form of wettable powders (WP) or as emulsion concentrates (EC), are then applied to the surface of the covering soil in the form of an aqueous suspension or emulsion at a water application rate equating to […], with addition of 0.2% wetting agent. After the treatment, the pots are placed in a greenhouse and kept under good growth conditions for the trial plants. The damage to the test plants is scored visually after a test period of 3 weeks by comparison with untreated controls (herbicidal activity in percent (%): 100% activity=the plants have died, 0% activity=like control plants).

SETVI [4] = test: Pre-emergence action against SETVI; format: in vivo, Setaria viridis; settings: pre-emergence, dosage 320 g/ha, scored visually after 3 weeks vs untreated controls
Procedure, shortened: as §1

ABUTH [5] = test: Pre-emergence action against ABUTH; format: in vivo, Abutilon theophrasti; settings: pre-emergence, dosage 320 g/ha, scored visually after 3 weeks vs untreated controls
Procedure, shortened: as §1

AMARE [6] = test: Pre-emergence action against AMARE; format: in vivo, Amaranthus retroflexus; settings: pre-emergence, dosage 320 g/ha, scored visually after 3 weeks vs untreated controls
Procedure, shortened: as §1

MATIN [7] = test: Pre-emergence action against MATIN; format: in vivo, Matricaria inodora; settings: Dosage 320 g/ha, pre-emergence
Procedure, shortened: as §1

PHBPU [8] = test: Pre-emergence action against PHBPU; format: in vivo, Pharbitis purpurea; settings: Dosage 320 g/ha, pre-emergence
Procedure, shortened: as §1

STEME [9] = test: Pre-emergence action against STEME; format: in vivo, Stellaria media; settings: Dosage 320 g/ha, pre-emergence
Procedure, shortened: as §1

VIOTR [10] = test: Pre-emergence action against VIOTR; format: in vivo, Viola tricolor; settings: Dosage 320 g/ha, pre-emergence
Procedure, shortened: as §1

VERPE [11] = test: Pre-emergence action against VERPE; format: in vivo, Veronica persica; settings: Dosage 320 g/ha, pre-emergence
Procedure, shortened: as §1

ALOMY [12] = test: Post-emergence action against ALOMY; format: in vivo, Alopecurus myosuroides; settings: Dosage 80 g/ha, post-emergence
Procedure, shortened: (§3)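 Weeds grown in sandy loam in greenhouse, treated at one-leaf stage (2–3 weeks after sowing) with WP or EC formulations sprayed as aqueous suspension/emulsion at 600 to […] water with 0.2% wetting agent. Visual rating after about 3 weeks versus untreated controls, as % herbicidal action (100% = plants dead, 0% = like control).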

AVEFA [13] = test: Post-emergence action against AVEFA; format: in vivo, Avena fatua; settings: post-emergence, dosage 80 g/ha, visual assessment about 3 weeks after treatment vs untreated controls
Procedure, shortened: as §3

CYPES [14] = test: Post-emergence action against CYPES; format: in vivo, Cyperus esculentus; settings: post-emergence, dosage 80 g/ha, visual assessment about 3 weeks after treatment vs untreated controls
Procedure, shortened: as §3

ECHCG [15] = test: Post-emergence action against ECHCG; format: in vivo, Echinochloa crus-galli; settings: post-emergence, dosage 80 g/ha, visual assessment about 3 weeks after treatment vs untreated controls
Procedure, shortened: as §3

ABUTH [16] = test: Post-emergence action against ABUTH; format: in vivo, Abutilon theophrasti; settings: post-emergence, dosage 80 g/ha, visual assessment about 3 weeks after treatment vs untreated controls
Procedure, shortened: as §3

MATIN [17] = test: Post-emergence action against MATIN; format: in vivo, Matricaria inodora; settings: post-emergence, dosage 80 g/ha, visual assessment about 3 weeks after treatment vs untreated controls
Procedure, shortened: as §3

PHBPU [18] = test: Post-emergence action against PHBPU; format: in vivo, Pharbitis purpurea; settings: post-emergence, dosage 80 g/ha
Procedure, shortened: as §3

POLCO [19] = test: Post-emergence action against POLCO; format: in vivo, Polygonum convolvulus; settings: post-emergence, dosage 80 g/ha
Procedure, shortened: as §3

STEME [20] = test: Post-emergence action against STEME; format: in vivo, Stellaria media; settings: post-emergence, dosage 80 g/ha
Procedure, shortened: as §3

VIOTR [21] = test: Post-emergence action against VIOTR; format: in vivo, Viola tricolor; settings: post-emergence, dosage 80 g/ha
Procedure, shortened: as §3

VERPE [22] = test: Post-emergence action against VERPE; format: in vivo, Veronica persica; settings: dosage 80 g/ha
Procedure, shortened: as §3

CYPES [23] = test: Pre-emergence action against CYPES; format: in vivo, Cyperus esculentus; settings: pre-emergence, dosage 320 g/ha, scored visually after 3 weeks vs untreated controls
Procedure, shortened: as §1

POLCO [24] = test: Pre-emergence action against POLCO; format: in vivo, Polygonum convolvulus; settings: Dosage 320 g/ha, pre-emergence
Procedure, shortened: as §1

SETVI [25] = test: Post-emergence action against SETVI; format: in vivo, Setaria viridis; settings: post-emergence, dosage 80 g/ha, visual assessment about 3 weeks after treatment vs untreated controls
Procedure, shortened: as §3

AMARE [26] = test: Post-emergence action against AMARE; format: in vivo, Amaranthus retroflexus; settings: post-emergence, dosage 80 g/ha, visual assessment about 3 weeks after treatment vs untreated controls
Procedure, shortened: as §3

HORMU = test: Pre-emergence action against HORMU; format: in vivo, Hordeum murinum; settings: Dosage 320 g/ha
Excerpt: as §2

Compound | Pre-emergence action against ALOMY (herbicidal activity in percent) (ALOMY [1]) [%] | Pre-emergence action against AVEFA (herbicidal activity) (AVEFA [2]) [%] | Pre-emergence action against ECHCG (herbicidal activity) (ECHCG [3]) [%] | Pre-emergence action against LOLRI (herbicidal activity) (LOLRI) [%] | SETVI (Table B8, pre-emergence herbicidal activity) (SETVI [4]) [%] | Pre-emergence action against ABUTH (herbicidal activity) (ABUTH [5]) [%] | Pre-emergence action against AMARE (herbicidal activity) (AMARE [6]) [%] | Pre-emergence action against MATIN (MATIN [7]) [%] | Pre-emergence action against PHBPU (PHBPU [8]) [%] | Pre-emergence action against STEME (STEME [9]) [%] | Pre-emergence action against VIOTR (VIOTR [10]) [%] | Pre-emergence action against VERPE (VERPE [11]) [%] | Post-emergence action against CYPES (herbicidal action in percent) (CYPES [14]) [%] | Post-emergence action against ECHCG (herbicidal action in percent) (ECHCG [15]) [%] | Post-emergence action against ABUTH (herbicidal action in percent) (ABUTH [16]) [%] | Post-emergence action against MATIN (herbicidal action in percent) (MATIN [17]) [%] | Post-emergence action against PHBPU (PHBPU [18]) | Post-emergence action against POLCO (POLCO [19]) | Post-emergence action against STEME (STEME [20]) | Post-emergence action against VIOTR (VIOTR [21]) | also measured
CCn1nnnc1NC(=O)c1ccc(C(F)(F)F)c(C(=O)C(C)C)c1Cl [2-140] | 90 | 80 | 100 | 90 | 100 | 100 | 100 | 100 | 100 | 100 | 100 | 100 | 80 | 100 | 100 | 90 | 90 | 80 | 100 | 100 | Post-emergence action against ALOMY (ALOMY [12]): 80%; Post-emergence action against AVEFA (herbicidal action in percent) (AVEFA [13]): 80%; Post-emergence action against VERPE (VERPE [22]): 80
CCCn1nnnc1NC(=O)c1ccc(C(F)F)c(C(C)=O)c1Cl [3-164] | 90 | 100 | 100 | 90 | 100 | 100 | 100 | 100 | 90 | 100 | 100 | 100 | 90 | 100 | 90 | 100 | 100 | 80 | 100 | 100 | Pre-emergence action against CYPES (herbicidal activity) (CYPES [23]): 100%; Pre-emergence action against POLCO (POLCO [24]): 100%; Post-emergence action against AVEFA (herbicidal action in percent) (AVEFA [13]): 80%; Post-emergence action against SETVI (herbicidal action in percent) (SETVI [25]): 100%; Post-emergence action against AMARE (herbicidal action in percent) (AMARE [26]): 100%
CCCn1nnnc1NC(=O)c1ccc(C(F)F)c(C(C)=O)c1SC [3-65] | 80 | 100 | 100 |  | 100 | 100 | 100 | 100 | 100 | 100 | 100 | 100 | 80 | 90 | 100 | 90 | 90 | 80 | 100 | 100 | Pre-emergence action against POLCO (POLCO [24]): 100%; Pre-emergence action against HORMU (HORMU): 100%; Post-emergence action against SETVI (herbicidal action in percent) (SETVI [25]): 100%; Post-emergence action against AMARE (herbicidal action in percent) (AMARE [26]): 90%; Post-emergence action against VERPE (VERPE [22]): 80

From patent US11051515B2, “3-acyl-benzamides and their use as herbicides” (Bayer Aktiengesellschaft, priority 2017, dated 2021)
